According to US5241087A (priority 1992, dated 1993):

Tested on: (R)-oxynitrilase
Assay: Relative rate of dehydrocyanation of cyanohydrins by soluble (R)-oxynitrilase (initial rate studies, absorbance)
Assay type: biochemical
Conditions: (R)-oxynitrilase with 0.21 mM solution of cyanohydrin; relative to benzaldehyde cyanohydrin = 1.0
Description: The following standardized assay was utilized to measure the activity of oxynitrilase set forth in the Examples which follow. A solution of enzyme was prepared in 0.1M (pH 5.5) citrate buffer. A 3-ml sample of enzyme solution was combined with 30 microliters of 0.21M benzaldehyde cyanohydrin and the rate of increase in absorbance at 250 nm recorded. Then, the same procedure was followed with a 3-ml sample of 0.1M (pH 5.5) citrate buffer to obtain the background, non-enzymatic, reaction. The activity in units/ml was calculated by subtracting the slope of the non-enzymatic reaction from the slope of the enzymatic reaction and converting the absorbance change with time to concentration change with time using a molar extinction coefficient of 13,200 M^-1 cm^-1.
Relative rates of dehydrocyanation of different cyanohydrins subjected to the action of the soluble catalyst (R)-oxynitrilase were determined from initial rate studies. A solution of (R)-oxynitrilase was combined with a 0.21 mM solution of cyanohydrin and the rate of increase of absorbance at the wavelength corresponding to the absorption maxima was monitored as described above in connection with the measurement of catalyst activity. The measured activity was calculated using the appropriate extinction coefficient for the corresponding aldehyde.

Compound	Relative Rate (dehydrocyanation)
N#CC(O)C=Cc1ccccc1 (stereo not drawn) [Cinnamaldehyde cyanohydrin]	0.05
COc1ccc(C(O)C#N)cc1 (stereo not drawn) [p-Anisaldehyde cyanohydrin]	0.17
N#CC(O)c1ccccc1 (stereo not drawn) [Benzaldehyde cyanohydrin]	1.0
Cc1ccc(C(O)C#N)cc1 (stereo not drawn) [p-Tolualdehyde cyanohydrin]	0.45
CC=CC(O)C#N (stereo not drawn) [Crotonaldehyde cyanohydrin]	0.90
N#CC(O)c1ccco1 (stereo not drawn) [Furfural cyanohydrin]	2.5
N#CC(O)c1ccc2c(c1)OCO2 (stereo not drawn) [Piperonal cyanohydrin]	2.1
COc1cccc(C(O)C#N)c1 (stereo not drawn) [m-Anisaldehyde cyanohydrin]	0.19
CCc1ccc(C(O)C#N)cc1 (stereo not drawn) [p-Ethylbenzaldehyde cyanohydrin]	0.13
Cc1ccc(C(O)C#N)o1 (stereo not drawn) [5-Methylfurfural cyanohydrin]	2.8

Tested on: oxynitrilase enzyme from sorghum
Assay: not given
Conditions: 6 Phytochemistry 473 (1967); cited from earlier work

Compound	specificity of sorghum oxynitrilase for dehydrocyanation of substrate
N#CC(O)c1ccc(O)cc1 (stereo not drawn) [p-hydroxybenzaldehyde cyanohydrin]	appears to be specific

Tested on: not listed separately
Assay: Permeability through supported-gas membrane (microporous polypropylene hollow fibers, system of FIG. 1)
Conditions: supported-gas membrane system of FIG. 1

Compound	average permeability relative to the permeability of benzaldehyde cyanohydrin
O=Cc1ccccc1 [benzaldehyde]	roughly 700 times
